# How the values were obtained:
# Format in all cases: in vivo, human
# [1] = tested on: children and young adults with severe, childhood onset treatment-resistant epilepsy (TRE); experiment: Expanded access compassionate use program of highly purified CBD extract added to baseline AED regimen; seizure diaries
# Procedure: (§1) Twenty-seven children and young adults with severe, childhood onset treatment-resistant epilepsy (TRE) were tested with a highly purified extract of cannabidiol (CBD) obtained from a cannabis plant. The participants in the study were part of an expanded access compassionate use program for CBD.
# (§2) All patients entered a baseline period of 4 weeks when parents/caregivers kept prospective seizure diaries, noting all countable motor seizure types.
# (§3) The patients then received a highly purified CBD extract (greater than 98% CBD w/w) in sesame oil, of known and constant composition, at a dose of 5 mg/kg/day in addition to their baseline anti-epileptic drug (AED) regimen.
# (§4) Laboratory testing for hematologic, liver, kidney function, and concomitant AED levels was performed at baseline, and after 4, 8 and 12 weeks of CBD therapy.
# [2] = tested on: children and young adults with treatment-resistant Dravet syndrome; experiment: Expanded access compassionate use program, Dravet syndrome sub-group
# Procedure: as §1, §2, §3, §4
# Nine children and young adults with treatment-resistant Dravet syndrome were part of an expanded access compassionate use program for highly purified CBD extract as described in Example 1.
# [3] = tested on: children and young adults with treatment-resistant myoclonic absence seizures; experiment: Expanded access compassionate use program, myoclonic absence seizures sub-group
# Procedure: as §1, §2, §3, §4
# Four children and young adults with treatment-resistant myoclonic absence seizures were part of an expanded access compassionate use program for highly purified CBD extract as described in Example 1.
# patients with FIRES = experiment: Expanded access program, febrile infection related epilepsy syndrome (FIRES) patients; set-up: Change from Baseline: unit not given here; conditions: for % Change from Baseline / Change from Baseline / Frequency (per month) / Responder (>=50% Reduction) / Responder (>=70% Reduction) / Responder (>=90% Reduction) / Seizure Free: total seizures
# Procedure: Three patients with FIRES, with an age range of from 4 to 15 years, were treated with CBD under an expanded access program as described previously in Example 1.
# Safety laboratory studies, physical/neurological exams, 24 hour video/EEG and seizure types and frequencies were assessed at baseline and one month after starting CBD.
# A highly purified extract of CBD as an oral solution in sesame oil was used at a concentration of 25 mg/mL.
# Treatment was initiated at a dose of 10 mg/kg/day given in two divided doses, increasing by 5 mg/kg/day every 3 days.
# Following seizure improvement an average of 2 AEDs were weaned.
# [4] = 27 subjects, 3-month treatment period
# [5] = All patients (excluding Dravet, MAS and FIRES) (n = 13), after 12 weeks of treatment
# [6] = All patients excluding Dravet patients (n = 18), after 3 months
# [7] = All patients excluding MAS patients (n = 23), after 3 months
# [8] = co-treatment of CBD with clobazam
# [9] = 9 Dravet subjects, 3-month treatment period
# [10] = Dravet patients (n = 9), after 3 months of therapy
# [11] = 4 MAS subjects, 3-month treatment period
# [12] = MAS patients (n = 4), after 3 months of therapy
# [13] = FIRES patients (n = 3), after 12 weeks of treatment
compound,measurement,setting,value
"C=C(C)[C@@H]1CCC(C)=C[C@H]1c1c(O)cc(CCCCC)cc1O [CBD, Cannabidiol]",Common adverse events,[1]; [4],"somnolence, fatigue, decreased appetite, increased appetite and diarrhoea"
same,adverse events,[1]; [4],mild and well tolerated
same,subjects who withdrew during the treatment period,[1]; [4],None
same,Responder rate (>50% reduction) [%],[1]; [5],38%
same,"Responder rate (>50% reduction), number of patients",[1]; [5],5
same,Responder rate (>70% reduction) [%],[1]; [5],31%
same,"Responder rate (>70% reduction), number of patients",[1]; [5],4
same,Responder rate (>90% reduction) [%],[1]; [5],8%
same,"Responder rate (>90% reduction), number of patients",[1]; [5],1
same,"Seizure free, number of patients",[1]; [5],0
same,Responder rate (>50% reduction) [%],"[1]; All patients (n = 27), Month 3",48%
same,"Responder rate (>50% reduction), number of patients","[1]; All patients (n = 27), Month 3",13
same,Responder rate (>70% reduction) [%],"[1]; All patients (n = 27), Month 3",41%
same,"Responder rate (>70% reduction), number of patients","[1]; All patients (n = 27), Month 3",11
same,Responder rate (>90% reduction) [%],"[1]; All patients (n = 27), Month 3",22%
same,"Responder rate (>90% reduction), number of patients","[1]; All patients (n = 27), Month 3",6
same,Seizure free [%],"[1]; All patients (n = 27), Month 3",7%
same,Responder rate (>50% reduction) [%],[1]; [6],44%
same,"Responder rate (>50% reduction), number of patients",[1]; [6],8
same,Responder rate (>70% reduction) [%],[1]; [6],39%
same,"Responder rate (>70% reduction), number of patients",[1]; [6],7
same,Responder rate (>90% reduction) [%],[1]; [6],17%
same,"Responder rate (>90% reduction), number of patients",[1]; [6],3
same,"Seizure free, number of patients",[1]; [6],0
same,Responder rate (>50% reduction) [%],[1]; [7],48%
same,"Responder rate (>50% reduction), number of patients",[1]; [7],11
same,Responder rate (>70% reduction) [%],[1]; [7],39%
same,"Responder rate (>70% reduction), number of patients",[1]; [7],9
same,Responder rate (>90% reduction) [%],[1]; [7],22%
same,"Responder rate (>90% reduction), number of patients",[1]; [7],5
same,Seizure free [%],[1]; [7],9%
same,"Seizure free, number of patients",[1]; [7],2
same,"odds ratio (OR) for positive treatment response (greater than 50% responder rate), convulsive seizures",[1]; [8],1.9
same,"odds ratio (OR) for positive treatment response (greater than 50% responder rate), total seizure reduction",[1]; [8],3.3
same,tolerability,[1]; doses up to 25 mg/kg/day,generally well-tolerated
same,Common adverse events,[2]; [9],"somnolence, fatigue, decreased appetite, increased appetite and diarrhoea"
same,adverse events,[2]; [9],mild and well tolerated
same,subjects who withdrew during the treatment period,[2]; [9],None
same,Responder rate (>50% reduction) [%],[2]; [10],56%
same,"Responder rate (>50% reduction), number of patients",[2]; [10],5
same,Responder rate (>70% reduction) [%],[2]; [10],44%
same,"Responder rate (>70% reduction), number of patients",[2]; [10],4
same,"Responder rate (>90% reduction), number of patients",[2]; [10],3
same,Seizure free [%],[2]; [10],22%
same,"Seizure free, number of patients",[2]; [10],2
same,Common adverse events,[3]; [11],"somnolence, fatigue, decreased appetite, increased appetite and diarrhoea"
same,adverse events,[3]; [11],mild and well tolerated
same,subjects who withdrew during the treatment period,[3]; [11],None
same,"Responder rate (>50% reduction), number of patients",[3]; [12],2
same,Responder rate (>70% reduction) [%],[3]; [12],50%
same,"Responder rate (>70% reduction), number of patients",[3]; [12],2
same,Responder rate (>90% reduction) [%],[3]; [12],25%
same,"Seizure free, number of patients",[3]; [12],0
same,functional recovery after a reduction in seizures,patients with FIRES; FIRES patients,able to walk and verbalise once more
same,Responder rate (>50% reduction) [%],patients with FIRES; [13],67%
same,"Responder rate (>50% reduction), number of patients",patients with FIRES; [13],2
same,Responder rate (>70% reduction) [%],patients with FIRES; [13],67%
same,"Responder rate (>70% reduction), number of patients",patients with FIRES; [13],2
same,Responder rate (>90% reduction) [%],patients with FIRES; [13],67%
same,"Responder rate (>90% reduction), number of patients",patients with FIRES; [13],2
same,Seizure free [%],patients with FIRES; [13],33%
same,"Seizure free, number of patients",patients with FIRES; [13],1
same,seizure freedom over the treatment period,"patients with FIRES; Patient 1, 24 week period",seizure free after starting treatment for almost all of the treatment period
same,reduction in seizures,"patients with FIRES; Patient 2, after 4 weeks",50%
same,reduction in the number of seizures,"patients with FIRES; Patient 3, week 24",greater than 90%
same,improvement in clinical and electrographic seizure burden,patients with FIRES; in two of the three children with refractory seizures or status epilepticus due to FIRES,greater than 90%
same,"Follow up laboratory tests (safety studies, concomitant AED levels)",patients with FIRES; three FIRES patients,no changes in safety studies or concomitant AED levels
same,tolerability,patients with FIRES; three FIRES patients,very well tolerated
same,treatment related adverse effects,patients with FIRES; three FIRES patients,No treatment related adverse effects
same,% Change from Baseline,"patients with FIRES; Patient 1, Wk 4",−100.0%
same,Change from Baseline,"patients with FIRES; Patient 1, Wk 4",−4.0
same,Frequency (per month),"patients with FIRES; Patient 1, Wk 4",0.0 per month
same,Responder (>=50% Reduction),"patients with FIRES; Patient 1, Wk 4",Yes
same,Responder (>=70% Reduction),"patients with FIRES; Patient 1, Wk 4",Yes
same,Responder (>=90% Reduction),"patients with FIRES; Patient 1, Wk 4",Yes
same,Seizure Free,"patients with FIRES; Patient 1, Wk 4",Yes
same,% Change from Baseline,"patients with FIRES; Patient 1, Wk 8",−75.0%
same,Change from Baseline,"patients with FIRES; Patient 1, Wk 8",−3.0
same,Frequency (per month),"patients with FIRES; Patient 1, Wk 8",1.0 per month
same,Responder (>=50% Reduction),"patients with FIRES; Patient 1, Wk 8",Yes
same,Responder (>=70% Reduction),"patients with FIRES; Patient 1, Wk 8",Yes
same,Responder (>=90% Reduction),"patients with FIRES; Patient 1, Wk 8",No
same,Seizure Free,"patients with FIRES; Patient 1, Wk 8",No
same,% Change from Baseline,"patients with FIRES; Patient 1, Wk 12",−100.0%
same,Change from Baseline,"patients with FIRES; Patient 1, Wk 12",−4.0
